The compounds below were run against T1, GLP-1 receptor (GLP-1R) (Rattus norvegicus, UniProt P32301) (assay: GLP-1 receptor binding assay (cellular ELISA)).
T1 construct: endogenous in cells; host or cells: rat INS-1 cells
T1 sequence (P32301 22-463): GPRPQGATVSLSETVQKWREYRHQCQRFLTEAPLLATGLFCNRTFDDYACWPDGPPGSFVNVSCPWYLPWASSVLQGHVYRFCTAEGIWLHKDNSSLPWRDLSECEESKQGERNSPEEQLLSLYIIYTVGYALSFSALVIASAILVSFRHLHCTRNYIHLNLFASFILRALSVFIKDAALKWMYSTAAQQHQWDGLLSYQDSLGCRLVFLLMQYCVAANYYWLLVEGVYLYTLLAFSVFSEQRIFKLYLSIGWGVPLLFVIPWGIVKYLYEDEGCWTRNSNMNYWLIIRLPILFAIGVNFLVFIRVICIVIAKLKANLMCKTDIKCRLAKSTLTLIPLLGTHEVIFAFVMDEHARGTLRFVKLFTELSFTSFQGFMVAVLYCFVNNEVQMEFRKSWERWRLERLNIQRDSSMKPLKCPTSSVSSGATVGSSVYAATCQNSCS
Description: Cells were rinsed with PBS and fixed with 4% paraformaldehyde (Thermo Scientific) for 10 min at room temperature and quenched for 5 min with 2% glycine in PBS, pH 7.5. […] After a 2 h incubation at 37 °C in a final volume of 100 μl, the excess peptides were washed, and the cells were blocked with 5% BSA (BD Biosciences). […] Colorimetric changes were analyzed by reading the absorbance at 450 nm in a SpectraMax M5 (Molecular Device) microplate reader. The peptide concentration was plotted against UV absorbance, and the Kd was calculated using Origin 7.0 software.
`CCCCCCCCNC(=O)CC[C@H](NC(=O)[C@H](CCCCN)NC(=O)[C@H](C)NC(=O)[C@H](C)NC(=O)[C@H](CCC(N)=O)NC(=O)CNC(=O)[C@H](CCC(=O)O)NC(=O)[C@H](CC(C)C)NC(=O)[C@H](Cc1ccc(O)cc1)NC(=O)[C@H](CO)NC(=O)[C@H](CO)NC(=O)[C@@H](NC(=O)[C@H](CC(=O)O)NC(=O)[C@H](CO)NC(=O)[C@@H](NC(=O)[C@H](Cc1ccccc1)NC(=O)[C@@H](NC(=O)CNC(=O)[C@H](CCC(=O)O)NC(=O)[C@H](C)NC(=O)[C@@H](N)Cc1c[nH]cn1)[C@@H](C)O)[C@@H](C)O)C(C)C)C(=O)N[C@@H](Cc1ccccc1)C(=O)N[C@H](C(=O)N[C@@H](C)C(=O)N[C@@H](Cc1c[nH]c2ccccc12)C(=O)N[C@@H](CC(C)C)C(=O)N[C@H](C(=O)N[C@@H](CCCCN)C(=O)NCC(=O)N[C@@H](CCCNC(=N)N)C(=O)NCC(=O)O)C(C)C)[C@@H](C)CC` [compound 16] gave a Kd of 22.3 ± 0.46 nM.
For `CCCCCCCCCCCCCCCC(=O)NCCCC[C@H](NC(=O)[C@H](C)NC(=O)[C@H](C)NC(=O)[C@H](CCC(N)=O)NC(=O)CNC(=O)[C@H](CCC(=O)O)NC(=O)[C@H](CC(C)C)NC(=O)[C@H](Cc1ccc(O)cc1)NC(=O)[C@H](CO)NC(=O)[C@H](CO)NC(=O)[C@@H](NC(=O)[C@H](CC(=O)O)NC(=O)[C@H](CO)NC(=O)[C@@H](NC(=O)[C@H](Cc1ccccc1)NC(=O)[C@@H](NC(=O)CNC(=O)[C@H](CCC(=O)O)NC(=O)[C@H](C)NC(=O)[C@@H](N)Cc1c[nH]cn1)[C@@H](C)O)[C@@H](C)O)C(C)C)C(=O)N[C@@H](CCC(=O)O)C(=O)N[C@@H](Cc1ccccc1)C(=O)N[C@H](C(=O)N[C@@H](C)C(=O)N[C@@H](Cc1c[nH]c2ccccc12)C(=O)N[C@@H](CC(C)C)C(=O)N[C@H](C(=O)N[C@@H](CCCCN)C(=O)NCC(=O)N[C@@H](CCCNC(=N)N)C(=O)NCC(=O)O)C(C)C)[C@@H](C)CC` [compound 3], the Kd was 33.8 ± 1.21 nM.
For `CCCCCCCCCCCCCCCCNC(=O)C[C@H](NC(=O)[C@H](CO)NC(=O)[C@@H](NC(=O)[C@H](Cc1ccccc1)NC(=O)[C@@H](NC(=O)CNC(=O)[C@H](CCC(=O)O)NC(=O)[C@H](C)NC(=O)[C@@H](N)Cc1c[nH]cn1)[C@@H](C)O)[C@@H](C)O)C(=O)N[C@H](C(=O)N[C@@H](CO)C(=O)N[C@@H](CO)C(=O)N[C@@H](Cc1ccc(O)cc1)C(=O)N[C@@H](CC(C)C)C(=O)N[C@@H](CCC(=O)O)C(=O)NCC(=O)N[C@@H](CCC(N)=O)C(=O)N[C@@H](C)C(=O)N[C@@H](C)C(=O)N[C@@H](CCCCN)C(=O)N[C@@H](CCC(=O)O)C(=O)N[C@@H](Cc1ccccc1)C(=O)N[C@H](C(=O)N[C@@H](C)C(=O)N[C@@H](Cc1c[nH]c2ccccc12)C(=O)N[C@@H](CC(C)C)C(=O)N[C@H](C(=O)N[C@@H](CCCCN)C(=O)NCC(=O)N[C@@H](CCCNC(=N)N)C(=O)NCC(=O)O)C(C)C)[C@@H](C)CC)C(C)C` [compound 12], the Kd was 84.6 ± 4.36 nM.
For `CCCCCCCCNC(=O)C[C@H](NC(=O)[C@H](CO)NC(=O)[C@@H](NC(=O)[C@H](Cc1ccccc1)NC(=O)[C@@H](NC(=O)CNC(=O)[C@H](CCC(=O)O)NC(=O)[C@H](C)NC(=O)[C@@H](N)Cc1c[nH]cn1)[C@@H](C)O)[C@@H](C)O)C(=O)N[C@H](C(=O)N[C@@H](CO)C(=O)N[C@@H](CO)C(=O)N[C@@H](Cc1ccc(O)cc1)C(=O)N[C@@H](CC(C)C)C(=O)N[C@@H](CCC(=O)O)C(=O)NCC(=O)N[C@@H](CCC(N)=O)C(=O)N[C@@H](C)C(=O)N[C@@H](C)C(=O)N[C@@H](CCCCN)C(=O)N[C@@H](CCC(=O)O)C(=O)N[C@@H](Cc1ccccc1)C(=O)N[C@H](C(=O)N[C@@H](C)C(=O)N[C@@H](Cc1c[nH]c2ccccc12)C(=O)N[C@@H](CC(C)C)C(=O)N[C@H](C(=O)N[C@@H](CCCCN)C(=O)NCC(=O)N[C@@H](CCCNC(=N)N)C(=O)NCC(=O)O)C(C)C)[C@@H](C)CC)C(C)C` [compound 10], the Kd was 88.3 ± 3.27 nM.
Compound `CCCCCCCCNC(=O)C[C@H](NC(=O)[C@@H](NC(=O)[C@H](CC(C)C)NC(=O)[C@H](Cc1c[nH]c2ccccc12)NC(=O)[C@H](C)NC(=O)[C@@H](NC(=O)[C@H](Cc1ccccc1)NC(=O)[C@H](CCC(=O)O)NC(=O)[C@H](CCCCN)NC(=O)[C@H](C)NC(=O)[C@H](C)NC(=O)[C@H](CCC(N)=O)NC(=O)CNC(=O)[C@H](CCC(=O)O)NC(=O)[C@H](CC(C)C)NC(=O)[C@H](Cc1ccc(O)cc1)NC(=O)[C@H](CO)NC(=O)[C@H](CO)NC(=O)[C@@H](NC(=O)[C@H](CC(=O)O)NC(=O)[C@H](CO)NC(=O)[C@@H](NC(=O)[C@H](Cc1ccccc1)NC(=O)[C@@H](NC(=O)CNC(=O)[C@H](CCC(=O)O)NC(=O)[C@H](C)NC(=O)[C@@H](N)Cc1c[nH]cn1)[C@@H](C)O)[C@@H](C)O)C(C)C)[C@@H](C)CC)C(C)C)C(=O)NCC(=O)N[C@@H](CCCNC(=N)N)C(=O)NCC(=O)O` [compound 19] has a Kd of 19.6 ± 2.14 nM.
`CCCCCCCCNC(=O)CC[C@H](NC(=O)[C@H](CC(C)C)NC(=O)[C@H](Cc1ccc(O)cc1)NC(=O)[C@H](CO)NC(=O)[C@H](CO)NC(=O)[C@@H](NC(=O)[C@H](CC(=O)O)NC(=O)[C@H](CO)NC(=O)[C@@H](NC(=O)[C@H](Cc1ccccc1)NC(=O)[C@@H](NC(=O)CNC(=O)[C@H](CCC(=O)O)NC(=O)[C@H](C)NC(=O)[C@@H](N)Cc1c[nH]cn1)[C@@H](C)O)[C@@H](C)O)C(C)C)C(=O)NCC(=O)N[C@@H](CCC(N)=O)C(=O)N[C@@H](C)C(=O)N[C@@H](C)C(=O)N[C@@H](CCCCN)C(=O)N[C@@H](CCC(=O)O)C(=O)N[C@@H](Cc1ccccc1)C(=O)N[C@H](C(=O)N[C@@H](C)C(=O)N[C@@H](Cc1c[nH]c2ccccc12)C(=O)N[C@@H](CC(C)C)C(=O)N[C@H](C(=O)N[C@@H](CCCCN)C(=O)NCC(=O)N[C@@H](CCCNC(=N)N)C(=O)NCC(=O)O)C(C)C)[C@@H](C)CC` [compound 13] showed a Kd of 18.7 ± 1.36 nM.
In the case of `CCCCCCCCCCCCNC(=O)C[C@H](NC(=O)[C@@H](NC(=O)[C@H](CC(C)C)NC(=O)[C@H](Cc1c[nH]c2ccccc12)NC(=O)[C@H](C)NC(=O)[C@@H](NC(=O)[C@H](Cc1ccccc1)NC(=O)[C@H](CCC(=O)O)NC(=O)[C@H](CCCCN)NC(=O)[C@H](C)NC(=O)[C@H](C)NC(=O)[C@H](CCC(N)=O)NC(=O)CNC(=O)[C@H](CCC(=O)O)NC(=O)[C@H](CC(C)C)NC(=O)[C@H](Cc1ccc(O)cc1)NC(=O)[C@H](CO)NC(=O)[C@H](CO)NC(=O)[C@@H](NC(=O)[C@H](CC(=O)O)NC(=O)[C@H](CO)NC(=O)[C@@H](NC(=O)[C@H](Cc1ccccc1)NC(=O)[C@@H](NC(=O)CNC(=O)[C@H](CCC(=O)O)NC(=O)[C@H](C)NC(=O)[C@@H](N)Cc1c[nH]cn1)[C@@H](C)O)[C@@H](C)O)C(C)C)[C@@H](C)CC)C(C)C)C(=O)NCC(=O)N[C@@H](CCCNC(=N)N)C(=O)NCC(=O)O` [compound 20], the Kd is reported as 20.1 ± 1.97 nM.
`CCCCCCCCCCCCNC(=O)CC[C@H](NC(=O)[C@H](CC(C)C)NC(=O)[C@H](Cc1ccc(O)cc1)NC(=O)[C@H](CO)NC(=O)[C@H](CO)NC(=O)[C@@H](NC(=O)[C@H](CC(=O)O)NC(=O)[C@H](CO)NC(=O)[C@@H](NC(=O)[C@H](Cc1ccccc1)NC(=O)[C@@H](NC(=O)CNC(=O)[C@H](CCC(=O)O)NC(=O)[C@H](C)NC(=O)[C@@H](N)Cc1c[nH]cn1)[C@@H](C)O)[C@@H](C)O)C(C)C)C(=O)NCC(=O)N[C@@H](CCC(N)=O)C(=O)N[C@@H](C)C(=O)N[C@@H](C)C(=O)N[C@@H](CCCCN)C(=O)N[C@@H](CCC(=O)O)C(=O)N[C@@H](Cc1ccccc1)C(=O)N[C@H](C(=O)N[C@@H](C)C(=O)N[C@@H](Cc1c[nH]c2ccccc12)C(=O)N[C@@H](CC(C)C)C(=O)N[C@H](C(=O)N[C@@H](CCCCN)C(=O)NCC(=O)N[C@@H](CCCNC(=N)N)C(=O)NCC(=O)O)C(C)C)[C@@H](C)CC` [compound 14] showed a Kd of 18.4 ± 2.36 nM.
